# From patent US20170143712A1, “Methods of Treating Cancers, Immune and Autoimmune Diseases, and Inflammatory Diseases Based on BTK Occupancy and BTK Resynthesis Rate” (Acerta Pharma B.V., priority 2014, published 2017)
# How the values were obtained:
# BTK = BTK (Homo sapiens, UniProt Q06187); experiment: PK/PD model fit and simulation of BTK occupancy and pBTK inhibition; settings: for BTK resynthesis rate (modeled estimate): 15 mg QD
# [1] = test system: anti-KLH IgM and IgG antibody response; experiment: T cell dependent antibody response (TDAR) to KLH in rats; type: in vivo, rat; settings: 1, 2.5 and 5 mg/kg/day oral gavage, KLH on Day 50
# Procedure: Rats were treated with oral gavage administration of vehicle or Formula (II) at doses of 1, 2.5 and 5 mg/kg/day for 91 days. Sixteen rats per gender were evaluated for development of T cell dependent antibody response (TDAR), with primary immunization on Day 50 with keyhole limpet hemocyanin (KLH) by subcutaneous injection. Dosing continued and on Days 57, 64, and 71, blood samples were collected via the sublingual vein into tubes without anticoagulant and allowed to clot at room temperature for at least 30 minutes, then the serum was divided into 4 approximately equal aliquots and stored frozen at approximately −60 to −90° C. Anti-KLH IgM and IgG antibody levels were determined using an enzyme-linked immunosorbent assay (ELISA). FIG. 41A, FIG. 41B, FIG. 41C, FIG. 41D, FIG. 41E, FIG. 41F, FIG. 42A, FIG. 42B, FIG. 42C, FIG. 42D, FIG. 42E, and FIG. 42F illustrate the trends in anti-KLH antibody responses among male and female rats.
# S6 phosphorylation = experiment: Basal and anti-IgM induced S6 phosphorylation in splenocytes after oral dosing of mice; type: in vivo, mouse; settings: single oral 25 mg/kg; rank order Formula (II)>ibrutinib>Formula (XVII)
# Procedure: B cell stimulation through the B cell receptor (BCR) with antibodies (e.g., anti-IgM) results in the activation of BTK and subsequent cellular changes, including the upregulation of various cell surface receptors. Measuring the inhibition of BCR induced protein phosphorylation downstream of Btk, and the inhibition of surface receptor upregulation provides a way to assess the Btk inhibitor activity. In the first study, the BTK target occupancy in splenocytes was measured over time, providing evidence for BTK resynthesis in the tissue compartment of interest.
# Mice were sacrificed at 3, 6, 12, 18, and 24 hours after treatment with the BTK inhibitors (FIG. 27A, FIG. 27B, and FIG. 27C). Spleens were harvested and splenocyte preparations were made for flow cytometry analysis of B cell functions. Fresh or cryopreserved splenocytes were cultured with a-IgM to stimulate BCR, and the up-regulation of CD69, an early functional marker of B cell activation, was analyzed by flow cytometry.
# A downstream marker of BTK activity, S6 phosphorylation, was also monitored in this study. […] In a second study, the effects of another inhibitor of BTK that covalently inactivates the kinase, Formula (XXI), were compared with Formula (II) to evaluate the return of BCR function and B cell activation, as illustrated in FIG. 29A and FIG. 29B.
# psoriasis = experiment: Clinical observation of psoriasis in CLL/SLL study subjects; type: in vivo, human
# Source text: Clinical studies have shown that targeting the BCR signaling pathway by inhibiting BTK produces significant clinical benefit in patients with various types of leukemias and lymphomas. Formula (II) achieves significant oral bioavailability and potency, and has favorable preclinical characteristics, as described above. The purpose of this study is to evaluate the safety and efficacy of the second generation BTK inhibitor of Formula (II) in treating subjects with chronic lymphocytic leukemia (CLL) and small lymphocytic lymphoma (SLL). The primary objectives of the clinical study are as follows: […] The secondary objective of the clinical study is to evaluate tumor responses in patients treated with Formula (II). In addition, effects of Formula (II) on other patient characteristics, such as dermatoses, were evaluated for particular patients enrolled in the study. This study is a multicenter, open-label, nonrandomized, sequential group, dose escalation study. The following dose cohorts are evaluated: The study scheme is a sequential cohort escalation. Each cohort consists of six subjects. The sample size of the study is 24 to 36 subjects, depending on dose escalation into subsequent cohorts. Cohort 1 (N=6) consists of Formula (II), 100 mg QD for 28 days. Cohort 2 (N=6) consists of Formula (II), 175 mg QD for 28 days. Cohort 3 (N=6) consists of Formula (II), 250 mg QD for 28 days. Cohort 4 (N=6) consists of Formula (II), 350 mg QD for 28 days. Cohort 5 (N=6) consists of Formula (II), 450 mg QD for 28 days. Cohort 6 (N=6) consists of Formula (II), at a dose to be determined QD for 28 days. The dose level for Cohort 6 will be determined based on the safety and efficacy of Cohorts 1 to 5, and will not exceed 900 mg/day. […] Treatment with oral Formula (II) may be continued for greater than 28 days until disease progression or an unacceptable drug-related toxicity occurs. The dosage form and strength of Formula (II) used in the clinical study is a hard gelatin capsules prepared using standard pharmaceutical grade excipients (microcrystalline cellulose) and containing 25 mg of Formula (II) each. The color of the capsules is Swedish orange. The route of administration is oral (per os, or PO). […] They were treated over time with several systemic therapies including etanercept, adalimumab, and a 2010 clinical study of an experimental agent. They initially responded to etanerceptbut continued to have flares, and was under the care of a dermatologist prior to enrolling in the clinical study. Their treatment history included topical medications, and recently included Taclonex (calcipotriene/betamethasone diproprionate), without much improvement in skin lesions.
# B cell receptor (BCR) = experiment: Ex vivo anti-IgM induced CD86 and CD69 expression on splenocyte B cells after oral dosing of mice; type: in vivo; settings: Mus musculus, single oral 25 mg/kg, 3-24 hours, read-out: CD86 % inhibition over the entire time course
# Chain of BTK (Q06187 whole entry): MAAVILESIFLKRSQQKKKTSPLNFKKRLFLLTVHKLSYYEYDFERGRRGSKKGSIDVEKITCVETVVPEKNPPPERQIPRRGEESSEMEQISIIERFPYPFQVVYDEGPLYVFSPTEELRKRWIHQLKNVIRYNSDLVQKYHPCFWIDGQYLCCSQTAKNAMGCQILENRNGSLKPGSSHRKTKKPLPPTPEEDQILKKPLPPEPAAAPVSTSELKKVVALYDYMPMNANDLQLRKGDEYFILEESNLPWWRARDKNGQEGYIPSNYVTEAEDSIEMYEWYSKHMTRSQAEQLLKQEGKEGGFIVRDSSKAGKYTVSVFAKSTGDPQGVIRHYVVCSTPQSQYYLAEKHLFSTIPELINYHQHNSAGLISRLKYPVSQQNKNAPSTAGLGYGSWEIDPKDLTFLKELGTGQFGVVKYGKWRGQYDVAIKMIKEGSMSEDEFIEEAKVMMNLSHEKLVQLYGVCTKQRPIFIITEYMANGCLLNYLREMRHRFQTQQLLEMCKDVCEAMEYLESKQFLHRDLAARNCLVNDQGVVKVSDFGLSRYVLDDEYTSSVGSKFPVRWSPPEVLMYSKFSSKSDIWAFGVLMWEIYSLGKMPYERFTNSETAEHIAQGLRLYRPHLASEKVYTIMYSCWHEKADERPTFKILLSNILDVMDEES
smiles,measurement,setting,value
"CC#CC(=O)N1CCC[C@H]1c1nc(-c2ccc(C(=O)Nc3ccccn3)cc2)c2c(N)nccn12 [Formula (II), (S)-4-(8-amino-3-(1-(but-2-ynoyl)pyrrolidin-2-yl)imidazo[1,5-a]pyrazin-1-yl)-N-(pyridin-2-yl)benzamide]","k4,1 (model rate constant)",BTK; 15 mg QD model fit,0.91
same,BTK resynthesis rate (modeled estimate),BTK; after the first 48 hours,0.04
same,BTK resynthesis rate (modeled estimate),BTK; first 48 hours,0.1
same,anti-KLH IgM and IgG production,[1],significant pharmacological effects on the magnitude of IgM and IgG production
same,basal state and anti-IgM induced S6 phosphorylation,S6 phosphorylation,inhibited both basal state and anti-IgM induced S6 phosphorylation
same,Psoriasis Area and Severity Index achieved (PASI90),"psoriasis; Subject 1, CLL patient with severe psoriasis, 10 month visit",90%
same,"serum IL-6, MIP-1α, MCP-1β, TNFA, TARC, CXCLS, CD40L, TRAIL, EGF, CXCL1 relative to baseline","psoriasis; Subject 1, Day 28 of treatment",decreased
same,psoriatic skin disease,"psoriasis; Subject 1, by Cycle 10 (10 months on treatment)",their skin was clear
same,moderate-to-severe plaque psoriasis,"psoriasis; Subject 2, after initiation of treatment",cleared quickly
same,inhibition at 25 mg/kg,B cell receptor (BCR),67.9%
